The values that follow are results of earlier work, collected in patent US20170049679A1, “ORAL AND DENTAL HYGIENE AND CLEANING AGENTS FOR REDUCING TOOTH DISCOLORATION” (Henkel AG & Co. KGaA, priority 2014, published 2017).

Where two headings read alike, the source gives them in different places.

By Solubility is commonly meant the concentration that dissolves in the medium under given conditions. As to Zinc acetylacetonate, the Solubility (20° C.) was 4 mg/mL.
For `[Cl-].[Cl-].[Zn+2]` [Zinc chloride], the Solubility (25° C.) is 4320 mg/mL.
For Zinc hydroxycarbonate, the “Solubility (in words)” value (20° C.) is listed as “Nearly insoluble”.
